Values joined by “and” are separate entries in the source; they are usually repeats but may differ in a detail not shown here. Identical values can stand only once.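 Interpolation was linear, between the two tested concentrations surrounding the appropriate level; five concentrations were tested over 48 hours in 96-well plates. At the TGI there is no net growth.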
Tests used:
Test in all cases: inhibition of tumour cell growth, NCI panel, 48 h
A549 NSCLC = system: A549 NSCLC
ACHN renal = system: ACHN renal
HT29 colon = system: HT29 colon
NCI-H460 lung = system: NCI-H460 lung
TK-10 renal = system: TK-10 renal
U251 CNS = system: U251 CNS
BT-549 breast = system: BT-549 breast
HS 578T breast = system: HS 578T breast
MCF7 breast = system: MCF7 breast
PC-3 prostate = system: PC-3 prostate

Row | SMILES | TGI (A549 NSCLC) | TGI (ACHN renal) | TGI (HT29 colon) | TGI (NCI-H460 lung) | TGI (TK-10 renal) | TGI (U251 CNS) | TGI (BT-549 breast) [µM] | TGI (HS 578T breast) [µM] | TGI (MCF7 breast) [µM] | TGI (PC-3 prostate) [µM]
1 | Brc1ccc(N2C[N+](c3ccc(Br)cc3)=NC(c3ccccc3)=N2)cc1 | 33.6 µM and > 100 µM | 26.4 µM and > 100 µM | 27.8 µM and > 100 µM | 29.5 µM and > 100 µM | 38 µM and > 100 µM | 33.5 µM and > 100 µM | – | – | – | –
2 | CCCCC[C@H](O)[C@H](C)C=C1SCCCS1 | > 100 µM | > 100 µM | > 100 µM | – | > 100 µM | > 100 µM | > 100 | > 100 | > 100 | > 100
3 | NC1=NS(=O)(=O)N=C(N)C1=Cc1ccc([N+](=O)[O-])o1 | > 100 µM | 30.6 µM | 34 µM | 35.9 µM | 32.6 µM | > 100 µM | – | – | – | –
4 | C#CC(C)(C)Oc1cc(OC)c2c(=O)c3ccccc3n(C)c2c1 | 74.1 µM | 64.6 µM | > 100 µM | 36 µM | > 100 µM | > 100 µM | – | 60.6 | > 100 | 40.8
5 | CCOC(=O)C1C/C(C)=C(/C)SCCCS1 (stereo unspecified) | > 100 µM | > 100 µM | > 100 µM | > 100 µM | > 100 µM | > 100 µM | – | > 100 | > 100 | > 100
6 | O=C(c1cccs1)N(C(=S)N1CCN(c2ccccc2)CC1)c1ccccc1 | > 100 µM | > 100 µM | > 100 µM | > 100 µM | > 100 µM | > 100 µM | – | – | – | –
7 | Cc1cnc(Cl)nc1C(C#N)c1nc2ccccc2n1C (stereo unspecified) | > 100 µM | > 100 µM | > 100 µM | > 100 µM | > 100 µM | 45.5 µM | > 100 | – | – | –
8 | O=C1CCSSCCC(=O)Nc2ccccc2N1 | > 100 µM | > 100 µM | > 100 µM | > 100 µM | > 100 µM | > 100 µM | > 100 | > 100 | – | > 100
9 | CCCCCCCCCCCCCCCCOCC(CC(F)(F)P(=O)(O)O)OC(C)=O (stereo unspecified) | > 50 µM | > 50 µM | > 50 µM | > 50 µM | > 50 µM | > 50 µM | > 50 | – | > 50 | > 50
10 | CC1(C)CC(=O)C(/C=N/c2nc(-c3ccc(Br)cc3)cs2)=C(O)C1 | > 100 µM | > 100 µM | > 100 µM | > 100 µM | 40.2 µM | > 100 µM | 37.8 | – | > 100 | > 100
11 | CCCCCCCCCCCCOC1C(COCCN2CCCC2)OC2OC(C)(C)OC21 (stereo unspecified) | 16.1 µM | 11.2 µM | 2.98 µM | – | 3.03 µM | 3.12 µM | 3.22 | 3.51 | 3.1 | 3.16
12 | CC1=NN(c2nc(N)nc(/C(C#N)=C/c3ccncc3)n2)C(C)(C)C1 | – | > 100 µM | > 100 µM | > 100 µM | > 100 µM | > 100 µM | > 100 | > 100 | > 100 | > 100
13 | COC(=O)Cc1c(C2=Nc3ccccc3C2(O)CC(=O)OC)[nH]c2ccccc12 (stereo unspecified) | > 100 µM | > 100 µM | > 100 µM | > 100 µM | > 100 µM | > 100 µM | > 100 | > 100 | – | > 100

Source: PubChem BioAssay (NCI)
